Results as given in PMC10638516 (Acta Pharmaceutica Sinica. B, 2023).
Read-outs that look alike come from different tables or passages of the source.

Columns and labels:
[1] = biological target: T1, hD2R (Homo sapiens, UniProt P14416); experiment: biochemical; format: binding; details: for inhibition at 10 µM: read-out: % inhibition at 10 μmol/L hD2
[2] = biological target: T2, hD3R (Homo sapiens, UniProt P35462); experiment: biochemical; format: binding; details: for Ki: Ki hD3, three experiments, means ± SEM
[3] = biological target: T2, hD3R; experiment: ERK1/2 phosphorylation; format: cell-based; details: for effect on ERK1/2 phosphorylation mediated by hD3R, compound alone (agonist mode): CHO-hD3R cells, quinpirole at 20 μmol/L
[4] = biological target: T1, hD2R; format: cell-based
[5] = biological target: hERG channel (Homo sapiens, UniProt Q12809); experiment: hERG channel automated patch clamp; format: cell-based; details: hERG inhibition IC50, patch clamp, tested three times
[6] = tested on: PC12 cells; experiment: CCK8 cytotoxicity test, PC12; format: cell-based; details: 24 h
[7] = tested on: mice; experiment: Catalepsy test in mice; format: in vivo, mouse
[8] = tested on: ICR mice; experiment: Spontaneous locomotor test; details: compounds 30 mg/kg i.p., RPD 1 mg/kg, 15 min
[9] = tested on: ICR mice; experiment: MK-801-induced hyperactivity
[10] = tested on: ICR mice; experiment: Apomorphine-induced climbing; format: in vivo, mouse; details: i.p., apomorphine 1.0 mg/kg s.c.
[11] = biological target: dopamine D3 receptor; details: read-out: D3R Ki; reference modulators of the pERK assay; cited from earlier work
[12] = read-out: % inhibition at 10 μmol/L hD3, 10 μmol/L test compound

T2 sequence (P35462 whole entry): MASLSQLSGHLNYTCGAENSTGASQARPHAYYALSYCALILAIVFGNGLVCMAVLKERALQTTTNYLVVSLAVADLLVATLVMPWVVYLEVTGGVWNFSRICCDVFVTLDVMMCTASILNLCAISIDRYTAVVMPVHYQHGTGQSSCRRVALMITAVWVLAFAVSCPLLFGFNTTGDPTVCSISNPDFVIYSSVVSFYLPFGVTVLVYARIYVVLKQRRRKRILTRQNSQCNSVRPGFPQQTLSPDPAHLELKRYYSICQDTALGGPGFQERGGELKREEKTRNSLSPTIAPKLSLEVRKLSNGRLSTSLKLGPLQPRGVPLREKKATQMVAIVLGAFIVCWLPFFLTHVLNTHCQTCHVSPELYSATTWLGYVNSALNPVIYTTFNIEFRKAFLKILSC
T1 sequence (P14416 whole entry): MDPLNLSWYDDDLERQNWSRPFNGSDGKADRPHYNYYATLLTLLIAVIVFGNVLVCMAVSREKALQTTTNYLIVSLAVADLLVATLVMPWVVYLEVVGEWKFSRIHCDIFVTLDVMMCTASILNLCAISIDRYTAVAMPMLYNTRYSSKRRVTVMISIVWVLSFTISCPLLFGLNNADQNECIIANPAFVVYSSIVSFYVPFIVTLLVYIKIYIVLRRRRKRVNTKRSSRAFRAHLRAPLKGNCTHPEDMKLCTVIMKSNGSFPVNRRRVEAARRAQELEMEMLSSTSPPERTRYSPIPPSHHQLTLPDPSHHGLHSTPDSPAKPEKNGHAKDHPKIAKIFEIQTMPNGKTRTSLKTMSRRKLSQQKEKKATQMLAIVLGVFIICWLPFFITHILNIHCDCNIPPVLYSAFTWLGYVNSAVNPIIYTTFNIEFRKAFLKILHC
hERG channel, sequence (Q12809 whole entry): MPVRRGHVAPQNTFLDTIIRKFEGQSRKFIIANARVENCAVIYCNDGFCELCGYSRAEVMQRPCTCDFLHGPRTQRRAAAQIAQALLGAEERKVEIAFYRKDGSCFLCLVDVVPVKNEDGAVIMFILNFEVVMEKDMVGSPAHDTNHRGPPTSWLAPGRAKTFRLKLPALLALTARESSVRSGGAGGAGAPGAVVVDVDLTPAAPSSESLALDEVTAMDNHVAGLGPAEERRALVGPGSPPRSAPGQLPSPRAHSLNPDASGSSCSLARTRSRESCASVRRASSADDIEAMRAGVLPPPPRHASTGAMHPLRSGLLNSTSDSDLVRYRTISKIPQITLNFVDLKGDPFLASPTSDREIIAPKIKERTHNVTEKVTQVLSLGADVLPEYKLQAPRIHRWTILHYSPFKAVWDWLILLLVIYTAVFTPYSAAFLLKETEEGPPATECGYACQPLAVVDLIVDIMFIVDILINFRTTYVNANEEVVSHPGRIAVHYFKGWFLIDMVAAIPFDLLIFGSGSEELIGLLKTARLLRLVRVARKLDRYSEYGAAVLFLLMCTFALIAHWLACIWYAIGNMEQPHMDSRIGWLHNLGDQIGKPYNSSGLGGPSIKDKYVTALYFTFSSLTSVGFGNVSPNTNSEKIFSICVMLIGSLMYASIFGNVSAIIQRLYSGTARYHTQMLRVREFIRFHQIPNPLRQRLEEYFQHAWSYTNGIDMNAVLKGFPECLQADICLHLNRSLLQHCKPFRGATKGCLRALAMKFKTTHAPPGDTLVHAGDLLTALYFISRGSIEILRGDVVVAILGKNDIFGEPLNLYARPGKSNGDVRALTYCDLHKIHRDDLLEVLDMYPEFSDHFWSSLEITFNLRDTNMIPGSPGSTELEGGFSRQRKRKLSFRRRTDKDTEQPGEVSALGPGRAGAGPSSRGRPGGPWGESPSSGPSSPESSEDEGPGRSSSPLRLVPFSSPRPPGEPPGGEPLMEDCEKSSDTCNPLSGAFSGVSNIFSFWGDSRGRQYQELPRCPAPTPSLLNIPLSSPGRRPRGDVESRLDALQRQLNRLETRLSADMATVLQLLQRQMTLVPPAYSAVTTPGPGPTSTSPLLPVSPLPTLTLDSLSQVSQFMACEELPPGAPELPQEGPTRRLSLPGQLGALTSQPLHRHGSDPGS

Compound | Ki [1] [nM] | inhibition at 10 µM [1] [%] | Ki [2] [nM] | inhibition at 10 µM [2, 12] [%] | other results
CC(C)n1c2ccccc2c2cc(CNCCCn3ccnc3)ccc21 [3c] | > 10000 | 1.7 ± 9.2 | 665 ± 13.5 | 83.8 ± 10.2 | 
CCn1c2ccccc2c2cc(CNCCCCn3ccnc3)ccc21 [17a] | > 10000 |  | 994 ± 36.6 | 75.6 ± 3.5 | 
CCn1c2ccccc2c2cc(CNCCCn3cnc4ccccc43)ccc21 [17d] | > 10000 | 71.8 ± 3.6 | 1100 ± 115 |  | inhibition at 10 µM ([2]; read-out: % inhibition at 10 μmol/L hD3): 75 ± 14.5%
CCn1c2ccccc2c2cc(CNCCCn3cnc4cncnc43)ccc21 [17e] |  | 10.6 ± 7.4 |  |  | 
CCn1c2ccccc2c2cc(CNCCCn3cnc4c(Cl)ncnc43)ccc21 [17f] |  | 12.8 ± 7.7 |  |  | 
CCn1c2ccccc2c2cc(CNCCCNC(=O)N(C)C)ccc21 [22a] |  |  |  | 42.1 ± 2.2 | 
CCn1c2ccccc2c2cc(CNCCCNC(=O)c3cc4ccccc4[nH]3)ccc21 [22b] |  | 8.1 ± 3.9 |  | 21.3 ± 8.5 | 
CCn1c2ccccc2c2cc(CNCCCNC(=O)c3nc4ccccc4[nH]3)ccc21 [22c] |  | 22.4 ± 5.7 |  | 32.7 ± 11.4 | 
CCn1c2ccccc2c2cc(CNCCCCNC(=O)c3cc4ccccc4[nH]3)ccc21 [23a] | > 10000 | 30 ± 14.1 | 62.6 ± 8 | 87 ± 2.5 | 
CCn1c2ccccc2c2cc(CNCCCCNC(=O)c3nc4ccccc4[nH]3)ccc21 [23b] | > 10000 |  | 578 ± 85 | 86.7 ± 1.9 | 
CCn1c2ccccc2c2cc(CNCCCCNC(=O)c3cc4ccccn4n3)ccc21 [23c] | > 10000 |  | 45.7 ± 2.2 | 98.4 ± 2 | 
CCn1c2ccccc2c2cc(CNCCCCNC(=O)c3ccc4[nH]cnc4c3)ccc21 [23d] | > 10000 | 2.7 ± 4.3 | 125 ± 17.6 | 98.5 ± 2.3 | 
CCn1c2ccccc2c2cc(CNCCCCNC(=O)c3ccc4[nH]c(=O)[nH]c4c3)ccc21 [23e] | > 10000 | 1.9 ± 10.7 | 99.3 ± 31.9 | 99.2 ± 0.5 | 
CCn1c2ccccc2c2cc(CNCCCCNC(=O)c3ccc4[nH]c(=O)oc4c3)ccc21 [23f] | > 10000 | 5.5 ± 21.5 | 95.1 ± 8.9 | 97.6 ± 0.3 | 
CCn1c2ccccc2c2cc(CNCCCCNC(=O)c3ccc(-c4ccccc4)cc3)ccc21 [23g] | > 10000 |  | 206 ± 2.9 | 102 ± 1.2 | 
CCn1c2ccccc2c2cc(CNCCCCNC(=O)c3ccc(-c4ccc(C(C)=O)cc4)cc3)ccc21 [23h] | > 10000 | 5.2 ± 7.6 | 24.2 ± 4.4 | 105 ± 1.5 | 
CCn1c2ccccc2c2cc(CNCCCCNC(=O)c3ccc(-c4ccccn4)cc3)ccc21 [23i] | > 10000 | 6.5 ± 2.3 | 21.3 ± 4.3 | 101 ± 0.8 | improvement of D3R binding affinity versus the phenyl group (23g) [2]: approximately 10 fold
CCn1c2ccccc2c2cc(CNCCCCNC(=O)c3ccc4[nH]c5ccccc5c4c3)ccc21 [23k] | > 10000 | 10.6 ± 3.3 | 145 ± 11.9 | 98.1 ± 0.8 | 
CCn1c2ccccc2c2cc(CNCCCCNC(=O)c3cnc4ccccc4c3)ccc21 [23l] | > 10000 | 9.6 ± 0.1 | 85.7 ± 2.9 | 100 ± 1.3 | 
CCn1c2ccccc2c2cc(CNCCCCNC(=O)c3ccnc4ccccc34)ccc21 [23m] |  |  |  | 63.1 ± 0.2 | 
CCN(CCCCNC(=O)c1cc2ccccc2[nH]1)Cc1ccc2c(c1)c1ccccc1n2CC [31a] | 333 ± 3.6 | 88.1 ± 1.5 | 134 ± 9.6 | 96.2 ± 0.2 | 
CCN(CCCCNC(=O)c1ccc(-c2cccnc2)cc1)Cc1ccc2c(c1)c1ccccc1n2CC [31b] | > 10000 | 36.9 ± 2.1 | 422 ± 18.3 | 78.5 ± 0.3 | 
CCCN(CCCCNC(=O)c1cc2ccccc2[nH]1)Cc1ccc2c(c1)c1ccccc1n2CC [31c] | 301 ± 11.9 | 89.8 ± 2.9 | 448 ± 26.1 | 98.6 ± 0.6 | 

Compound | Ki [1] [nM] | inhibition at 10 µM [1] [%] | Ki [2] [nM] | inhibition at 10 µM [2, 12] [%] | other results
CCCN(CCCCNC(=O)c1ccc(-c2cccnc2)cc1)Cc1ccc2c(c1)c1ccccc1n2CC [31d] | > 10000 | 26.8 ± 0.9 | 994 ± 45.3 | 81.3 ± 0.6 | 
CCCN(CCCCNC(=O)c1cc2ccccn2n1)Cc1ccc2c(c1)c1ccccc1n2CC [31e] | > 10000 | 18.6 ± 2.5 | 478 ± 29.4 | 74.8 ± 1.5 | 
Cn1c2c(c3ccccc31)CN(CCCCNC(=O)c1cc3ccccc3[nH]1)CC2 [36a] | > 10000 | 20.9 ± 3.8 | 10.6 ± 4.5 | 97.6 ± 2 | effect on ERK1/2 phosphorylation mediated by hD3R, compound alone (agonist mode) [3]: no influence; competitive antagonism of ERK1/2 phosphorylation mediated by D3R ([3]; in the presence of 20 μmol/L dopamine): dose-dependently inhibit; effect on ERK1/2 phosphorylation mediated by hD2R, compound alone (agonist mode) [4]: weak partial agonism; IC50 [5]: 1320 nM; cytotoxicity in PC12 cells [6]: significant cytotoxicity at high concentrations; Catalepsy MED i.p. (minimum effective dose) [7]: ≥480.0 mg/kg; Catalepsy peak effect (percent of cataleptic animals) ([7]; i.p.): 0.0%; catalepsy under all tested doses ([7]; i.p., 23j up to 240 mg/kg, 36a/b/f up to 480 mg/kg): did not elicit catalepsy; effect on spontaneous locomotion [8]: no influences; inhibition of MK-801-induced hyperactivity at 3 mg/kg ([9]; 3 mg/kg i.p.): did not show the inhibition activity
Cn1c2c(c3ccccc31)CN(CCCCNC(=O)c1cn3nc(Cl)ccc3n1)CC2 [36c] |  | 21.1 ± 9 |  | 66.3 ± 9.1 | 
Cn1c2c(c3ccccc31)CN(CCCCNC(=O)c1cnc3ccccc3c1)CC2 [36d] |  | 15.6 ± 12.9 |  | 42.5 ± 6.8 | 
Cn1c2c(c3ccccc31)CN(CCCCNC(=O)c1ccnc3ccccc13)CC2 [36e] |  | -2 ± 17.4 |  | 68.1 ± 1.9 | 
Cn1c2c(c3ccccc31)CN(CCCCNC(=O)c1ccc(-c3cccnc3)cc1)CC2 [36g] | > 10000 | 29.2 ± 5.8 | 29 ± 3.3 | 83.8 ± 12.7 | 
Cn1c2c(c3ccccc31)CN(CCCCNC(=O)c1ccc3[nH]c4ccccc4c3c1)CC2 [36h] |  | 74.4 ± 3.3 | 19.6 ± 7.3 | 95.5 ± 0.7 | 
Cn1c2c(c3ccccc31)CN(CCCCNC(=O)c1ccc3[nH]c(=O)[nH]c3c1)CC2 [36i] | > 10000 | 38.9 ± 3.8 | 3.7 ± 0.6 | 87.5 ± 6.1 | 
Cn1c2c(c3ccccc31)CN(CCCCNC(=O)c1ccc3[nH]cnc3c1)CC2 [36j] | > 10000 | 27.7 ± 1.4 | 14.2 ± 0.7 | 74.4 ± 8.2 | 
CCn1c2c(c3ccccc31)CN(CCCCNC(=O)c1cc3ccccc3[nH]1)CC2 [36k] | > 10000 | 13.2 ± 7.3 | 15.5 ± 1.8 | 106 ± 2.2 | 
Cn1c2c(c3ccccc31)CCN(CCCCNC(=O)c1cc3ccccc3[nH]1)C2 [42a] | > 10000 | 9.1 ± 16.4 | 6.8 ± 0.8 | 106 ± 1.3 | 
CCn1c2c(c3ccccc31)CCN(CCCCNC(=O)c1cc3ccccc3[nH]1)C2 [42b] | > 10000 | 17.5 ± 1.5 | 12.9 ± 2.1 | 106 ± 3.6 | 
Cn1c2c(c3ccccc31)CCN(CCCCNC(=O)c1ccc3nc[nH]c3c1)C2 [42e] |  | 49.7 ± 1.2 | 203 | 81.5 ± 0.6 | 
CCn1c2c(c3ccccc31)CCN(CCCCNC(=O)c1ccc3nc[nH]c3c1)C2 [42f] |  | 54.1 ± 0.1 | 300 | 80.6 ± 1.1 | 
Cn1c2c(c3ccccc31)CCN(CCCCNC(=O)c1ccc(-c3cccnc3)cc1)C2 [42g] |  | 37.8 ± 1 |  | 69.6 ± 0.8 | 
CCn1c2c(c3ccccc31)CCN(CCCCNC(=O)c1ccc(-c3cccnc3)cc1)C2 [42h] |  | 28.9 ± 0.8 |  | 31.3 ± 0.6 | 
Cn1c2c(c3ccccc31)CCN(CCCCNC(=O)c1ccc3[nH]c(=O)[nH]c3c1)C2 [42i] |  | 37.6 ± 0.2 | 112 | 85.2 ± 0.5 | 
CCn1c2c(c3ccccc31)CCN(CCCCNC(=O)c1ccc3[nH]c(=O)[nH]c3c1)C2 [42j] |  | 48.8 ± 0.7 | 149 | 85.9 ± 0.07 | 
CN(C)C(=O)N[C@H]1CC[C@H](CCN2CCN(c3cccc(Cl)c3Cl)CC2)CC1 [Cariprazine, cariprazine, reference compound] |  |  |  |  | effect on ERK1/2 phosphorylation mediated by hD2R, compound alone (agonist mode) [4]: did not exhibit significant effects; inhibition of apomorphine-induced climbing [10]: dose-dependent inhibition; inhibition of MK-801-induced hyperactivity ([9]; i.p., MK-801 0.3 mg/kg s.c., 60 min): dose-dependently inhibited
CCCN1CCO[C@@H]2c3cc(O)ccc3OC[C@H]21 [PD128907, reference compound] |  |  |  |  | effect on ERK1/2 phosphorylation mediated by hD3R, compound alone (agonist mode) [3]: full ERK1/2 phosphorylation; effect on ERK1/2 phosphorylation mediated by hD2R, compound alone (agonist mode) [4]: but not CHO-hD2R cells; Ki [11]: 1 nM
c1ccc2c(c1)[nH]c1ccc(CNCCCn3ccnc3)cc12 [compound 8] |  | 33.2 ± 17.5 |  | 54.2 ± 7.7 | 
NCCc1ccc(O)c(O)c1 [dopamine, reference compound] |  |  |  |  | effect on ERK1/2 phosphorylation mediated by hD2R, compound alone (agonist mode) [4]: significantly increased
